Measured values as given in patent US7935853B2, “Micronized composition of a 2,4-disubstituted phenol derivative” (priority 2008, dated 2011).
In brackets after ≈: the same amount, converted by molar mass.

Columns and labels:
[1] = First phase I clinical trial, single oral dose, safety and pharmacokinetics; assay type: in vivo, human; details: healthy volunteers
Procedure: (§1) 2,4,6-triiodophenol is a potent leukotriene B4 (LTB4) synthesis inhibitor that is currently under clinical development. The exact mechanism of action of 2,4,6-triiodophenol is not completely understood but it is known that the inhibition of the enzyme 5-lipoxygenase is involved.
A preliminary exploratory analysis was done by simulating the typical pharmacokinetic profiles after single and multiple 240, 350, and 500 mg dose regimens based on the pharmacokinetic model and model parameter estimates obtained from the first phase I study, where 2,4,6-triiodophenol was given to healthy volunteers in a single dose ranging from 6 to 1200 mg.

LTB4 synthesis = assay: First phase I trial, plasma concentration vs LTB4 synthesis inhibition (EMAX); assay type: in vivo; details: Homo sapiens; healthy volunteers, single oral dose, EMAX type relationship; read-out: IC50 (level of drug in plasma eliciting half of maximal LTB4 synthesis inhibition)
Source text: as §1

[2] = test system: arthritis induced by injection of type II collagen in the mouse; assay: Model of arthritis induced by type II collagen in mice (CIA), hind paw plethysmometry; assay type: in vivo; details: for Total hind paw volume (sum of both hind paws) / Oedema (difference in paw volume from basal values on day 21) in both hind paws: group mean n=10
Procedure: The aim of the study was to determine the anti-inflammatory activity of the test item in a model of arthritis induced by injection of type II collagen in the mouse (CIA) and to compare the activity of two different formulations: micronized and non-micronized.
Induction of arthritis was carried out by an initial exposure to type II bovine collagen by a subcutaneous injection at the base of the tail (induction phase).
After a recovery time of 21 days, animals received a booster injection and approximately 4-5 weeks after the first injection there was an immune response with arthritis appearing in the extremities in the majority of the cases.
Four experimental groups were used in the study with 10 animals in each group:
Group D: Positive control: FCA+vehicle B.I.D.
Group E: Micronized Test Item (Micro) 10 mg/kg B.I.D.
Group F: Non-Micronized test item 10 mg/kg B.I.D.
Group G: Reference item: Indomethacin 1 mg/kg Q.D.
The dose administered to groups E and F was 10 mg/kg.
The dose administered to group G was 1 mg/kg.
The doses of the test and reference items were expressed as mg/Kg of compound administered to each animal.
The test and reference items were administered in a solution of methylcellulose (0.25%: vehicle).
The positive control group received the vehicle (methylcellulose 0.25%).
The test and reference items, as well as the vehicle were administered orally at a dosing volume of 5 mls/kg.
The route of administration used was oral by use of an intragastric cannula.
On the day of start of the study each mouse was injected subcutaneously at the base of the tail with a first dose of 0.1 ml of an emulsion of bovine type II collagen (1 mg/mL) in Freund's Complete Adjuvant. Afterwards, on day 21 after this first injection, a second booster injection of type II collagen was administered to all animals. In this occasion the collagen suspension was done using Incomplete Freund's Adjuvant.
Coinciding with the second booster injection on day 21 treatment with the test or reference items was started to the corresponding animals.
Treatment with the test or reference items was carried out for 31 consecutive days (days 21-51 of the experimental period). Additionally, a recovery period was included at the end of the treatment period from day 52 to day 65 in order to evaluate the duration of any anti-inflammatory effect observed once dosing has been terminated.
The animals' hind paw volume was measured by plethysmometry one day before the 1st injection of collagen, again one day before the second (booster) collagen injection (basal values) and then daily after administration of test/reference item until the end of the study. During the recovery period at the end of the study, hind paw volume was measured three times per week.
Additionally the data was also represented graphically, depicting changes in total hind paw volume, as well as oedema (differences from basal (day 21) values).

[3] = day 22, oral treatment days 21-51
[4] = day 23, oral treatment days 21-51
[5] = day 26, oral treatment days 21-51
[6] = day 27, oral treatment days 21-51
[7] = day 29, oral treatment days 21-51
[8] = day 30, oral treatment days 21-51
[9] = day 33, oral treatment days 21-51
[10] = day 34, oral treatment days 21-51
[11] = day 35, oral treatment days 21-51
[12] = day 36, oral treatment days 21-51
[13] = day 37, oral treatment days 21-51
[14] = day 40, oral treatment days 21-51
[15] = day 41, oral treatment days 21-51
[16] = day 42, oral treatment days 21-51
[17] = day 43, oral treatment days 21-51
[18] = day 44, oral treatment days 21-51
[19] = day 47, oral treatment days 21-51
[20] = day 48, oral treatment days 21-51
[21] = day 49, oral treatment days 21-51
[22] = day 50, oral treatment days 21-51
[23] = day 51, oral treatment days 21-51
[24] = day 54, recovery period after treatment days 21-51
[25] = day 56, recovery period after treatment days 21-51
[26] = day 58, recovery period after treatment days 21-51
[27] = day 61, recovery period after treatment days 21-51
[28] = day 63, recovery period after treatment days 21-51
[29] = day 65, recovery period after treatment days 21-51

SMILES: Oc1c(I)cc(I)cc1I [2,4,6-triiodophenol]
- safety and tolerability ([1]; single oral dose from 6 mg to 1200 mg): very good safety and tolerability profiles
- pharmacokinetic behavior ([1]; single oral dose, at least in the range from 240 to 700 mg): predictable and dose-independent
- IC50 (LTB4 synthesis): 16.6 µg/mL (≈ 35.2 µM)

SMILES: COc1ccc2c(c1)c(CC(=O)O)c(C)n2C(=O)c1ccc(Cl)cc1 [Indomethacin, reference compound]
- Total hind paw volume (sum of both hind paws) ([2]; day 0, before collagen and treatment): 0.175
- Total hind paw volume (sum of both hind paws) ([2]; day 20, basal, before treatment): 0.227
- Oedema (difference in paw volume from basal values on day 21) in both hind paws [2, 3]: 0.000
- Total hind paw volume (sum of both hind paws) [2, 3]: 0.227
- Oedema (difference in paw volume from basal values on day 21) in both hind paws [2, 4]: 0.000
- Total hind paw volume (sum of both hind paws) [2, 4]: 0.227
- Oedema (difference in paw volume from basal values on day 21) in both hind paws [2, 5]: 0.022
- Total hind paw volume (sum of both hind paws) [2, 5]: 0.249
- Oedema (difference in paw volume from basal values on day 21) in both hind paws [2, 6]: 0.001
- Total hind paw volume (sum of both hind paws) [2, 6]: 0.228
- Oedema (difference in paw volume from basal values on day 21) in both hind paws [2, 7]: 0.011
- Total hind paw volume (sum of both hind paws) [2, 7]: 0.237
- Oedema (difference in paw volume from basal values on day 21) in both hind paws [2, 8]: 0.012
- Total hind paw volume (sum of both hind paws) [2, 8]: 0.239
- Oedema (difference in paw volume from basal values on day 21) in both hind paws [2, 9]: 0.012
- Total hind paw volume (sum of both hind paws) [2, 9]: 0.238
- Oedema (difference in paw volume from basal values on day 21) in both hind paws [2, 10]: 0.013
- Total hind paw volume (sum of both hind paws) [2, 10]: 0.240
- Oedema (difference in paw volume from basal values on day 21) in both hind paws [2, 11]: 0.020
- Total hind paw volume (sum of both hind paws) [2, 11]: 0.246
- Oedema (difference in paw volume from basal values on day 21) in both hind paws [2, 12]: 0.012
- Total hind paw volume (sum of both hind paws) [2, 12]: 0.239
- Oedema (difference in paw volume from basal values on day 21) in both hind paws [2, 13]: −0.005
- Total hind paw volume (sum of both hind paws) [2, 13]: 0.222
- Oedema (difference in paw volume from basal values on day 21) in both hind paws [2, 14]: 0.028
- Total hind paw volume (sum of both hind paws) [2, 14]: 0.255
- Oedema (difference in paw volume from basal values on day 21) in both hind paws [2, 15]: 0.031
- Total hind paw volume (sum of both hind paws) [2, 15]: 0.257
- Oedema (difference in paw volume from basal values on day 21) in both hind paws [2, 16]: 0.021
- Total hind paw volume (sum of both hind paws) [2, 16]: 0.247
- Oedema (difference in paw volume from basal values on day 21) in both hind paws [2, 17]: 0.023
- Total hind paw volume (sum of both hind paws) [2, 17]: 0.250
- Oedema (difference in paw volume from basal values on day 21) in both hind paws [2, 18]: 0.011
- Total hind paw volume (sum of both hind paws) [2, 18]: 0.238
- Oedema (difference in paw volume from basal values on day 21) in both hind paws [2, 19]: 0.028
- Total hind paw volume (sum of both hind paws) [2, 19]: 0.254
- Oedema (difference in paw volume from basal values on day 21) in both hind paws [2, 20]: 0.025
- Total hind paw volume (sum of both hind paws) [2, 20]: 0.252
- Oedema (difference in paw volume from basal values on day 21) in both hind paws [2, 21]: 0.030
- Total hind paw volume (sum of both hind paws) [2, 21]: 0.256
- Oedema (difference in paw volume from basal values on day 21) in both hind paws [2, 22]: 0.030
- Total hind paw volume (sum of both hind paws) [2, 22]: 0.256
- Oedema (difference in paw volume from basal values on day 21) in both hind paws [2, 23]: 0.021
- Total hind paw volume (sum of both hind paws) [2, 23]: 0.248
- Oedema (difference in paw volume from basal values on day 21) in both hind paws [2, 24]: 0.040
- Total hind paw volume (sum of both hind paws) [2, 24]: 0.266
- Oedema (difference in paw volume from basal values on day 21) in both hind paws [2, 25]: 0.052
- Total hind paw volume (sum of both hind paws) [2, 25]: 0.279
- Oedema (difference in paw volume from basal values on day 21) in both hind paws [2, 26]: 0.058
- Total hind paw volume (sum of both hind paws) [2, 26]: 0.285
- Oedema (difference in paw volume from basal values on day 21) in both hind paws [2, 27]: 0.058
- Total hind paw volume (sum of both hind paws) [2, 27]: 0.28
- Oedema (difference in paw volume from basal values on day 21) in both hind paws [2, 28]: 0.064
- Total hind paw volume (sum of both hind paws) [2, 28]: 0.29
- Oedema (difference in paw volume from basal values on day 21) in both hind paws [2, 29]: 0.076
- Total hind paw volume (sum of both hind paws) [2, 29]: 0.30
- effect on hind paw oedema (in words) ([2]; test item 10 mg/kg BID, Indomethacin 1 mg/kg Q.D, oral): significant anti-inflammatory response
